Data taken from patent US12291513B2, “Pyridinium derivatives made by hydrothermal synthesis for use as anolytes in electrochemical cells” (Wisconsin Alumni Research Foundation, priority 2021, dated 2025).

Columns and labels:
[1] = Cyclic voltammetry (formal potentials, Randles-Sevcik diffusion coefficients); format: physicochemical
Method: (§1) CV and EIS experiments were ran using a PalmSens4 potentiostat with the PSTrace software. Electrochemical experiments were performed in 1.0 M NaCl supporting electrolyte using 15 mM of active material at room temperature (18° C.). Formal potentials for the redox couples were estimated by taking the average potential between the cathodic and anodic peak. Diffusional behavior was investigated by varying the scan rate between 10-100 mV·s^−1 for the first electron reduction and 50-200 mV·s^−1 for the second electron reduction, and the diffusion constants of the reduced and oxidized states (D^R and D^O) were determined via the Randles-Sevcik equation assuming ideal reversible behavior (FIG. 12D). Potentiostatic EIS measurements were used for determination of a combined diffusional constant of the reduced and oxidized states (D^EIS) and of the standard electron kinetic rate constant (k^o). These EIS measurements were performed at the formal reduction potential (held for 30 seconds before measurement) in which the concentration of the two redox states at the electrode surface were assumed to be the same and equal to half of the initially prepared redox species concentration.
(§2) A glassy carbon working electrode (CH Instruments, 0.0707 cm^2), a saturated calomel reference electrode (SCE, CH Instruments, +0.241 V vs. SHE), and a platinum wire counter electrode were used for both CV and EIS measurements. The working electrode was polished with 1 μm, 0.3 μm, and 0.05 μm alumina slurry successively. All electrodes were rinsed with deionized water in between measurements.
CVs were taken at various scan rates in order to determine the diffusion coefficients via the Randles-Sevcik relation (Eqn. 1) where ip is the peak current in Amps, n is number of electrons transferred, F is Faraday's constant, A is electrode surface area in cm^2, C is the redox species concentration in mole·cm^−3, R is the ideal gas constant, T is temperature, D is the diffusion coefficient, and v is scan rate in V/s. The anodic peak current […] determines the diffusion coefficient of the reduced state (D^R) while the cathodic peak current (ip,a) determines the diffusion coefficient of the oxidized state (D^O). ip=0.4463n^3/2·F^3/2·A·C·R^−1/2·T^−1/2·D^1/2·v^1/2 Eqn. 1

[2] = Electrochemical impedance spectroscopy (EIS); format: physicochemical
Method: as §1, §2
Potentiostatic EIS measurements were taken at the formal potential in which the reduction and oxidation processes are at equilibrium and the concentrations of the reduced and oxidized states can be assumed equal. This permitted simple calculation of the standard kinetic rate constant (k^o) via Eqn. 2 where R is the ideal gas constant, T is temperature, n is number of electrons, RCT is the charge-transfer resistance, F is Faraday's constant, A is the electrode surface area in cm^2, and C is the concentration of either the oxidized or reduced form at the electrode surface in mole cm^−3 (which is assumed to be half of the initially prepared redox species concentration, C═C^O═C^R=0.5 Cinitial).
A combined diffusion coefficient of the reduced and oxidized state (D^EIS) can also be determined using Eqn. 3, where σ is the Warburg diffusional impedance variable and all other variables have the previously defined meaning.
RCT and σ can be determined by fitting the impedance spectrum to the ideal Randles equivalent circuit for a 3-electrode system where Ru is the uncompensated resistance between the working and reference electrode, RCT is the charge transfer resistance between the working electrode and the redox species, WD is the Warburg diffusional element, and CPE is the constant phase element that represents capacitive behavior of the working electrode.
The raw data was fitted based on this equivalent circuit using the Z-Fitting tool on the PSTrace software and with the Levenberg-Marquardt algorithm across the entire measured frequency range. For the second redox state, D2^EIS were 3.6×10^−6 cm^2·s^−1 and 3.8×10^−6 cm^2·s^−1 and k2^o were 0.13 cm·s^−1 and 0.23 cm·s^−1 for Dex-Vi and BTMAP-Vi, respectively.

C[N+](C)(C)CC(O)C[n+]1ccc(-c2cc[n+](CC(O)C[N+](C)(C)C)cc2)cc1 (stereo not shown) [Dex-Vi, bis(3-trimethylammonio-2-hydroxy)propyl viologen tetrachloride]
first electron formal potential (E1^0) ([1]; 15 mM in 1.0 M NaCl, 18° C.): −0.322 V vs. SHE
E1^0 ([1]; Table 1): −0.322 V vs. SHE
E2^0 ([1]; Table 1): −0.699 V vs. SHE
reduced state diffusion coefficient (D1^R) ([1]; first redox state, 3+ species): 1.9×10^−6 cm^2·s^−1
oxidized state diffusion coefficient (D1^O) ([1]; first redox state, 4+ species): 2.3×10^−6 cm^2·s^−1
D2^O ([1]; second redox state): 4.0×10^−6 cm^2·s^−1
D2^R ([1]; second redox state): 3.1×10^−6 cm^2·s^−1
second electron formal potential (E2^0) ([1]; vs. SHE, 15 mM in 1.0 M NaCl, 18° C.): −0.699 V
EIS D ([2]; Example 2): 3.516E−06 cm^2/s
EIS i^0 ([2]; Example 2): 6.57E−04 A
EIS k^0 ([2]; Example 2): 0.0128 cm/s
k1^0 ([2]; Table 1): 0.05 cm/s
combined diffusion coefficient (D1^EIS) ([2]; first reduction): 3.9×10^−6 cm^2·s^−1
standard rate constant (k1^0) ([2]; first reduction): 0.05 cm/s
D2^EIS ([2]; second redox state): 3.6×10^−6 cm^2·s^−1
k2^o ([2]; second redox state): 0.13 cm/s
